Experimental data from patent US20060122432A1, “Aryl piperidine derivatives and use thereof to reduce elevated levels of ldl-cholesterol” (priority 2002, published 2006).
Counter-ions that a name gives are not always drawn.

Columns and labels:
[1] = test system: LDL-r promoter; test: LDL-r promoter luciferase reporter assay in HepG2 cells; format: cell-based; details: Homo sapiens; HepG2 cells stably transfected with LDL-r promoter-luciferase construct, 24 hours incubation, 2% lipoprotein-deficient serum; read-out: EC50 induction of luciferase activity
Experimental: HepG2 cells, stably transfected with a construct comprising the LDL-r promoter and the luciferase reporter gene, were seeded at 50.000 cells/well in 96 well plates. After 1 day, cells were incubated with compounds for 24 hours in RPMI medium containing 2% of lipoprotein-deficient serum. Compounds were tested from […]. Cell lysates were prepared and the luciferase activity was measured by the luciferase assay system (Promega). Induction of luciferase activity was calculated taking untreated cells as control. The ED50 of each compounds was determined compared to the ED50 of an internal standard.

melting point [°C] | EC50 [1] [nM] | SMILES
188 |  | Cc1nc(-c2ccc(C#N)cc2)sc1C(=O)NCCCCN1CCC(c2ccc3c(c2OCCO)CCCC3)CC1 (as salt: hydrochloride) [Example 7, 2-(4-Cyano-phenyl)-4-methyl-thiazole-5-carboxylic acid (4-{4-[1-(2-hydroxy-ethoxy)-5,6,7,8-tetrahydro-naphthalen-2-yl]-piperidin-1-yl}-butyl)-amide, hydrochloride]
 | 13 | Cc1nc(-c2ccc(Cl)cc2Cl)sc1C(=O)NCCCCN1CCC(c2ccc3c(c2OCCO)CCCC3)CC1 [Example 8, 2-(2,4-dichloro-phenyl)-4-methyl-thiazole-5-carboxylic acid (4-{4-[1-(2-hydroxy-ethoxy)-5,6,7,8-tetrahydro-naphthalen-2-yl]-piperidin-1-yl}-butyl)-amide]
157 to 159 |  | O=C(NCCCCN1CCC(c2ccc3c(c2OCCO)CCCC3)CC1)c1sc(-c2ccc(C(F)(F)F)cc2)nc1CO [Example 3, 4-Hydroxymethyl-2-(4-trifluoromethyl-phenyl)-thiazole-5-carboxylic acid (4-{4-[1-(2-hydroxy-ethoxy)-5,6,7,8-tetrahydro-naphthalen-2-yl]-piperidin-1-yl}-butyl)-amide]
216 | 5 | CS(=O)(=O)Nc1ccc(-c2ccc(C(=O)NCCCCN3CCC(c4ccc5c(c4OCCO)CCCC5)CC3)cc2)cc1 [Example 12, 4′-Methanesulfonylamino-biphenyl-4-carboxylic acid (4-{4-[1-(2-hydroxy-ethoxy)-5,6,7,8-tetrahydro-naphthalen-2-yl]-piperidin-1-yl}-butyl)-amide]
